Laboratory results from patent US20170196834A1, “PREPARATION AND APPLICATION OF FLAVONOL AS BRAIN-TARGETING SYNERGIST” (GUANGDONG PHARMACEUTICAL UNIVERSITY, priority 2014, published 2017).

What was measured:
[1] = tested on: 4-VO local cerebral ischemia; assay: 4-VO local cerebral ischemia rats, nerve regeneration, learning and memory (Example 3); assay type: in vivo; conditions: 4-VO rats, gavage, 7 days after administration
Procedure: In addition, 40 rats of 4-VO local cerebral ischemia were prepared and they were administered with solvent saline, 100 mg/kg […], […] and stilbene glucoside by gavage at the volume of 20 ml/kg, 10 rats per group; Animals were sacrificed 7 days after administration, to observe the improve rate of nerve regeneration, learning and memory.

[2] = Stilbene glucoside in blood and brain tissues 0.5 h after intragastric administration, UPLC-MS (Example 3); assay type: in vivo; conditions: SD rats, 100 mg/kg stilbene glucoside, 0.5 h after administration
Procedure: Treatment Group: LXN2-1 and LXN2-2 were made into suspension. 5 SD rats were administered the suspension with the dose of 100 mg/kg stilbene glucoside and the volume of 20 ml/kg by intragastric administration;
Control group: stilbene glucoside extract was made into suspension. 5 SD rats were administered the suspension at the dose of 100 mg/kg stilbene glucoside and the volume of 20 ml/kg by intragastric administration;
The rats were drew blood 0.5 h after administration and then sacrificed under anaesthesia. Brain tissues were taken to prepare brain homogenates. The content of stilbene glucoside in the blood and brain tissues were detected by UPLC-MS.

[3] = cited from earlier work
MCAO forebrain ischemia [4] = assay: MCAO forebrain ischemia rats, infarction area, nerve regeneration, learning and memory (Example 6); assay type: in vivo; conditions: 100 mg vinpocetine/edaravone/oxiracetam per kg, intragastric, 7 days after administration
Procedure: In addition, 70 rats of MCAO forebrain ischemia were prepared, and they were administrated with solvent saline, or administrated with LXN6, LXN7 or LXN8, containing vinpocetine, edaravone or oxiracetam, respectively, at a dosage of 100 mg vinpocetine/edaravone/oxiracetam per kg body weight, or administrated with vinpocetine, edaravone or oxiracetam at a dosage of 100 mg/kg.
Intragastric administration at an amount of 20 ml/kg was conducted, for 10 rats per group; Animals were sacrificed 7 days after administration, to observe the improvement rate of cerebral infarction area and the improvement rate of nerve regeneration, learning and memory ability.

[5] = Vinpocetine, edaravone, oxiracetam in blood and brain tissue 0.5 h after intragastric administration, UPLC-MS (Example 6); assay type: in vivo; conditions: rat, oral, SD rats, intragastric 100 mg/kg
Procedure: Treatment Group: LXN6, LXN7, LXN8 were made into suspensions respectively. Five SD rats were administered the suspensions at the dose of 100 mg/kg and the volume of 20 ml/kg by intragastric administration;
Control group: vinpocetine, edaravone, oxiracetam were made into suspension. Five SD rats were administered the suspension at the dose of 100 mg/kg and the volume of 20 ml/kg by intragastric administration;
The rats were drewd blood 0.5 h after administration, then sacrificed under anaesthesia. Brain tissues were taken to prepare brain homogenates. The content of active ingredient in the blood and brain tissues was detected by UPLC-MS.

Parkinson's disease = assay: Clinical treatment of Parkinson's disease (LXN9, LXN10, levodopa); assay type: in vivo, human
From the text: (1) Clinical Data and Methods • Same as above.
Profile of patients: All selected patients were from department of neurology, which diagnosed with Parkinson's disease according to the Parkinson's disease diagnostic criteria in clinical examination during 2010-2014. a total of 120 cases, including 66 males, 54 females; aged 50-78 years, and 62.8 years on average, with the shortest duration of 1 year, and longest duration of 13 years, 3.6 years on average.
Levodopa tablet group: (specification of 250 mg/tablet) 1 tablet/time, 3 times/d.
LXN 10 capsule group: 250 mg/capsule, 1 capsule per time, 3 times a day.
Fifteen days as a course in all groups, a total of 9 months for medication; and during the period, other drugs regulating cerebral vasodilation, brain cell metabolism and neurological functions were discontinued. […]

[6] = tested on: 6-hydroxydopamine PD models; assay: 6-hydroxydopamine PD model rats, behavioural indexes; assay type: in vivo; conditions: 6-hydroxydopamine PD rats, 100 mg/kg levodopa by gavage, 15 days
Procedure: Animals were administered for 15 days, to observe the changes of five indexes, including slow-moving test, grasping experiment, tail stiffness, change of tonic symptoms and tremor test.

[7] = Levodopa in blood and brain tissues 0.5 h after intragastric administration, UPLC-MS (Example 7); assay type: in vivo; conditions: rat, oral, SD rats, intragastric 100 mg/kg levodopa
Procedure: Five SD rats were administered the suspension at the dose of 100 mg/kg levodopa and the volume of 20 ml/kg by intragastric administration;
Control group: The levodopa was made into suspension. Five SD rats were administered the suspension at the dose of 100 mg/kg and the volume of 20 ml/kg by intragastric administration;
The rats were drew blood 0.5 h after administration, and then sacrificed under anaesthesia. Brain tissues were taken to prepare brain homogenates. The content of active ingredient in the blood and brain tissues was detected by UPLC-MS.

[8] = Rb1 in blood and brain tissues 0.5 h after intragastric administration, UPLC-MS (Example 1); assay type: in vivo; conditions: SD rats, equivalent to ginsenoside Rb1 100 mg/kg, 0.5 h after administration
Procedure: Treatment Group: The LXN1-1 and LXN1-2 were made into suspension, administered to SD rats by intragastric administration. Five rats were given 20 ml/kg according to the dose of 125/150 mg/kg (equivalent to ginsenoside Rb1 100 mg/kg);
Control group: ginsenoside […] extract was made into suspension, administered to SD rats by intragastric administration. Five rats were given ginsenoside Rb1 at the volume of 20 ml/kg according to the dose of 100 mg/kg;
The rats were drew blood 0.5 h after administration and then sacrificed under anaesthesia. Brain tissues were taken to prepare brain homogenates. The content of TCM active ingredient in the blood and brain tissues was detected by UPLC-MS.

MCAO forebrain ischemia [9] = assay: MCAO forebrain ischemia rats, improvement rate of cerebral infarction area (Example 1); assay type: in vivo; conditions: gavage, 7 days after administration
Procedure: In addition, […] of MCAO forebrain ischemia were prepared, and they were administered solvent saline, 100 mg/kg LXN1 or ginsenoside Rb1 by gavage at 20 ml/kg, 10 rats per group; Animals were sacrificed 7 days after administration, to observe the improvement rate of cerebral infarction area.

stilbene glucoside
Improvement rate of learning and memory [1]: 31.6 ± 21.0% | Nerve regeneration rate [1]: 81.2 ± 35.6% | Content of stilbene glucoside in brain tissues [2]: 40.2 ± 16.1 ng/g | Plasma concentration of stilbene glucoside [2]: 3350 ± 680 ng/mL

C[C@@H]1O[C@@H](OC[C@H]2O[C@@H](Oc3c(-c4ccc(O)c(O)c4)oc4cc(O)cc(O)c4c3=O)[C@H](O)[C@@H](O)[C@@H]2O)[C@H](O)[C@H](O)[C@H]1O [Rutin]
solubility in boiling water ([3]; boiling water): soluble in boiling water | solubility in water [3]: not soluble in water

NC(=O)CN1CC(O)CC1=O (stereo not shown) [Oxiracetam, oxiracetam]
Improvement rate of learning and memory (MCAO forebrain ischemia [4]): 56.9 | Infarction area (MCAO forebrain ischemia [4]): 24.5% | Nerve regeneration rate (MCAO forebrain ischemia [4]): 85% | Space exploration distance (MCAO forebrain ischemia [4]): 54.0 cm | concentration at 0.5 h ([5]; blood, read-out: Oxiracetam content in the blood): 82300 ng/mL | concentration at 0.5 h ([5]; brain, read-out: Oxiracetam content in the brain tissue): 173 ng/mL

CC1=NN(c2ccccc2)C(=O)C1 [Edaravone, edaravone]
Improvement rate of learning and memory (MCAO forebrain ischemia [4]): 45.1 | Infarction area (MCAO forebrain ischemia [4]): 24.1% | Nerve regeneration rate (MCAO forebrain ischemia [4]): 80% | Space exploration distance (MCAO forebrain ischemia [4]): 51.0 cm | concentration at 0.5 h ([5]; blood, read-out: Edaravone content in the blood): 58300 ng/mL | concentration at 0.5 h ([5]; brain, read-out: Edaravone content in the brain tissue): 128 ng/mL

N[C@@H](Cc1ccc(O)c(O)c1)C(=O)O [Levodopa, levodopa]
Daily Living Activity (UPDRS-II) Score, 1 month after treatment (Parkinson's disease; PD patients, n=40): 14.12 ± 5.31 | Daily Living Activity (UPDRS-II) Score, 3 months after treatment (Parkinson's disease; PD patients, n=40): 12.49 ± 5.10 | Daily Living Activity (UPDRS-II) Score, 6 months after treatment (Parkinson's disease; PD patients, n=40): 11.12 ± 3.31 | Daily Living Activity (UPDRS-II) Score, 12 months after treatment (Parkinson's disease; PD patients, n=40): 10.32 ± 3.31 | Daily Living Activity (UPDRS-II) Score, Before treatment (Parkinson's disease; PD patients, n=40): 15.61 ± 5.71 | daily life satisfaction (LSIB) scores, 1 month after treatment (Parkinson's disease; PD patients, n=40): 13.11 ± 3.92 | daily life satisfaction (LSIB) scores, 3 months after treatment (Parkinson's disease; PD patients, n=40): 14.91 ± 3.16 | daily life satisfaction (LSIB) scores, 6 months after treatment (Parkinson's disease; PD patients, n=40): 16.85 ± 3.15 | daily life satisfaction (LSIB) scores, 12 months after treatment (Parkinson's disease; PD patients, n=40): 17.24 ± 3.16 | daily life satisfaction (LSIB) scores, Before treatment (Parkinson's disease; PD patients, n=40): 12.59 ± 2.02 | motor complications (UPDRS-IV) scores, 1 month after treatment (Parkinson's disease; PD patients, n=40): 2.93 ± 0.86 | motor complications (UPDRS-IV) scores, 3 months after treatment (Parkinson's disease; PD patients, n=40): 2.46 ± 0.61 | motor complications (UPDRS-IV) scores, 6 months after treatment (Parkinson's disease; PD patients, n=40): 2.15 ± 0.56 | motor complications (UPDRS-IV) scores, 12 months after treatment (Parkinson's disease; PD patients, n=40): 1.79 ± 0.56 | motor complications (UPDRS-IV) scores, Before treatment (Parkinson's disease; PD patients, n=40): 3.59 ± 1.02 | motor function examination (UPDRS-III) scores, 1 month after treatment (Parkinson's disease; PD patients, n=40): 34.16 ± 7.91 | motor function examination (UPDRS-III) scores, 3 months after treatment (Parkinson's disease; PD patients, n=40): 28.91 ± 6.61 | motor function examination (UPDRS-III) scores, 6 months after treatment (Parkinson's disease; PD patients, n=40): 24.85 ± 6.56 | motor function examination (UPDRS-III) scores, 12 months after treatment (Parkinson's disease; PD patients, n=40): 21.15 ± 6.56 | motor function examination (UPDRS-III) scores, Before treatment (Parkinson's disease; PD patients, n=40): 37.99 ± 10.23 | psychiatric, behavioral, and emotional scores (UPDRS-1), 1 month after treatment (Parkinson's disease; PD patients, n=40): 3.15 ± 0.81 | psychiatric, behavioral, and emotional scores (UPDRS-1), 3 months after treatment (Parkinson's disease; PD patients, n=40): 2.29 ± 0.73 | psychiatric, behavioral, and emotional scores (UPDRS-1), 6 months after treatment (Parkinson's disease; PD patients, n=40): 1.85 ± 0.53 | psychiatric, behavioral, and emotional scores (UPDRS-1), 12 months after treatment (Parkinson's disease; PD patients, n=40): 1.79 ± 0.59 | psychiatric, behavioral, and emotional scores (UPDRS-1), Before treatment (Parkinson's disease; PD patients, n=40): 3.59 ± 1.02 | Curative effect for PD: Overall response rate (ORR) (Parkinson's disease; clinically cured, markedly effective and effective cases): 80% | Curative effect for PD: Clinically cured % (Parkinson's disease; of 40 cases): 0% | Curative effect for PD: Clinically cured n (Parkinson's disease; of 40 cases): 0 | Curative effect for PD: Effective % (Parkinson's disease; of 40 cases): 32.2% | Curative effect for PD: Effective n (Parkinson's disease; of 40 cases): 13 | Curative effect for PD: Ineffective % (Parkinson's disease; of 40 cases): 20.0% | Curative effect for PD: Ineffective n (Parkinson's disease; of 40 cases): 8 | Curative effect for PD: Markedly effective % (Parkinson's disease; of 40 cases): 47.8% | Curative effect for PD: Markedly effective n (Parkinson's disease; of 40 cases): 19 | Duration of slow-moving test [6]: 15.5 min | EMG group discharge frequency [6]: 3.1 times/sec | Grip Test Duration [6]: 40.1 min | Muscle tremor frequency [6]: 10.1 times, minutes | tail stiffness time [6]: 10.2 min | concentration at 0.5 h ([7]; blood, read-out: levodopa Content in the blood): 114000 ng/mL | concentration at 0.5 h ([7]; brain, read-out: levodopa Content in the brain tissues): 284 ng/mL

CCOC(=O)C1=C[C@]2(CC)CCCN3CCc4c(n1c1ccccc41)[C@@H]32 [Vinpocetine, vinpocetine]
Improvement rate of learning and memory (MCAO forebrain ischemia [4]): 59.9 | Infarction area (MCAO forebrain ischemia [4]): 23.1% | Nerve regeneration rate (MCAO forebrain ischemia [4]): 87% | Space exploration distance (MCAO forebrain ischemia [4]): 56.2 cm | concentration at 0.5 h ([5]; blood, read-out: Vinpocetine content in the blood): 84400 ng/mL | concentration at 0.5 h ([5]; brain, read-out: Vinpocetine content in the brain tissue): 124 ng/mL

O=c1c(O)c(-c2ccc(O)cc2)oc2cc(O)cc(O)c12 [Kaempferol]
solubility in water [3]: slightly soluble in water

COc1ccc([C@@H]2CC(=O)c3c(O)cc(O[C@@H]4O[C@H](CO[C@@H]5O[C@@H](C)[C@H](O)[C@@H](O)[C@H]5O)[C@@H](O)[C@H](O)[C@H]4O)cc3O2)cc1O [Hesperidin]
solubility in water [3]: insoluble in water

CC(C)=CCC[C@](C)(O[C@@H]1O[C@H](CO[C@@H]2O[C@H](CO)[C@@H](O)[C@H](O)[C@H]2O)[C@@H](O)[C@H](O)[C@H]1O)[C@H]1CC[C@]2(C)[C@@H]1[C@H](O)C[C@@H]1[C@@]3(C)CC[C@H](O[C@@H]4O[C@H](CO)[C@@H](O)[C@H](O)[C@H]4O[C@@H]4O[C@H](CO)[C@@H](O)[C@H](O)[C@H]4O)C(C)(C)[C@@H]3CC[C@]12C [Rb1, ginsenoside Rb1]
Rb1 content in brain tissues [8]: 4.12 ± 1.13 ng/g | Rb1 plasma concentration [8]: 3.35 ± 0.68 µg/mL | Improvement rate of cerebral infarction area (MCAO forebrain ischemia [9]): 22.1 ± 9.1%
